In brackets after ≈: the same amount, converted by molar mass.
Columns and labels:
Enterococcus faecium = experiment: Compound was tested for its antibacterial activity against Enterococcus faecium (Vancomycin resistant, VRE) OC 3312.; type: functional
Enterococcus faecalis = experiment: Compound was tested for its antibacterial activity against Enterococcus faecalis OC 3041.; type: functional
Staphylococcus aureus [1] = experiment: Compound was tested for its antibacterial activity against MRSA (methicillin resistant) OC 2089.; type: functional
[2] = target: T1, KinA/Spo0F (sporulation kinase A/sporulation initiation phosphotransferase F) (Bacillus subtilis (strain 168), UniProt P06628+P16497); experiment: Inhibition of histidine protein kinase (KinA) phosphorylation in the presence of response regulator (Spo0F); type: protein assay
T1 sequence (P06628 whole entry): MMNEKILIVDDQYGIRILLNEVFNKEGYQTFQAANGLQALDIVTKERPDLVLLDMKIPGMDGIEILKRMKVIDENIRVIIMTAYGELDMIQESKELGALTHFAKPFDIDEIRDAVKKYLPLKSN
T1 sequence (P16497 whole entry): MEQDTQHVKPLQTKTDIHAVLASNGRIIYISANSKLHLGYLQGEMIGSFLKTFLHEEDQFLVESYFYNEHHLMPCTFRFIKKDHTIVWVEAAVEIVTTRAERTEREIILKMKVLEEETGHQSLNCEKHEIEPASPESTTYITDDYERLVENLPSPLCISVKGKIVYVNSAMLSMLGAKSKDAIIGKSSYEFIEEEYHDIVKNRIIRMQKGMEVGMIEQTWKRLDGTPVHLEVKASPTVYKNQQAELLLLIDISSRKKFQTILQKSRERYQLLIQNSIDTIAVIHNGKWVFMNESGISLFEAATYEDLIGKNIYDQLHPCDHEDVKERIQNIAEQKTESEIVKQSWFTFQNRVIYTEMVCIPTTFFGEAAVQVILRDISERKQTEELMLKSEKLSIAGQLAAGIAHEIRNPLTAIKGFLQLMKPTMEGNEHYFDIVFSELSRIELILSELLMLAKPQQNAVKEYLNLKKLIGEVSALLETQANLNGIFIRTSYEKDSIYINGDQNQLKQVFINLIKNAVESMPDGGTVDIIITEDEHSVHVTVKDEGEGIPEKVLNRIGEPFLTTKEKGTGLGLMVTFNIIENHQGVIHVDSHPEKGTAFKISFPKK

Staphylococcus aureus [3] = experiment: Compound was tested for its antibacterial activity against Staph aureus ATCC 29213.; type: functional
[4] = Partition coefficient (logP); type: physicochemical; conditions: octanol/water

| SMILES | IC50 [2] [µM] | MIC (Enterococcus faecium) [µg/mL] | also measured |
| --- | --- | --- | --- |
| O=C(Nc1ccc(Cl)c(Cl)c1)c1cc(Cl)c(O)c(Cl)c1 | 98 | 64 (≈ 182 µM) | MIC (Enterococcus faecalis): 64 µg/mL (≈ 182 µM); MIC (Staphylococcus aureus [1]): 16 µg/mL (≈ 45.6 µM); MIC (Staphylococcus aureus [3]): 16 µg/mL (≈ 45.6 µM) |
| O=C(Nc1cc(Cl)cc(Cl)c1O)c1ccc(Cl)c(Cl)c1 | > 500 | 1 (≈ 2.85 µM) | MIC (Enterococcus faecalis): 2 µg/mL (≈ 5.7 µM); MIC (Staphylococcus aureus [1]): 0.25 µg/mL (≈ 0.712 µM); MIC (Staphylococcus aureus [3]): 0.5 µg/mL (≈ 1.42 µM) |
| CN[C@H](CC(C)C)C(=O)N[C@H]1C(=O)N[C@@H](CC(N)=O)C(=O)N[C@H]2C(=O)N[C@H]3C(=O)N[C@H](C(=O)N[C@H](C(=O)O)c4cc(O)cc(O)c4-c4cc3ccc4O)[C@H](O)c3ccc(c(Cl)c3)Oc3cc2cc(c3O[C@@H]2O[C@H](CO)[C@@H](O)[C@H](O)[C@H]2O[C@H]2C[C@](C)(N)[C@H](O)[C@H](C)O2)Oc2ccc(cc2Cl)[C@H]1O [VANCOMYCIN] | – | > 128 | – |
| COc1c(I)cc(I)cc1C(=O)Nc1cc(C)c(C(C#N)c2ccc(Cl)cc2)cc1Cl (stereo unspecified) | > 500 | – | – |
| Cc1cc(NC(=O)c2cc(I)c(O)c(I)c2)c(Cl)cc1C(C#N)c1ccc(Cl)cc1 (stereo unspecified) | 9 | – | – |
| O=C(Nc1ccc(Cl)c(Cl)c1)c1cc(Cl)cc(Cl)c1O [3,3',4',5-TETRACHLOROSALICYLANILIDE] | 45 | 0.5 (≈ 1.42 µM) | MIC (Enterococcus faecalis): 0.5 µg/mL (≈ 1.42 µM); MIC (Staphylococcus aureus [1]): 0.25 µg/mL (≈ 0.712 µM); logP [4]: 4.8; MIC (Staphylococcus aureus [3]): 0.5 µg/mL (≈ 1.42 µM) |
| Cc1onc(-c2ccccc2)c1C(=O)N[C@@H]1C(=O)N2[C@@H]1SC(C)(C)[C@@H]2C(=O)O [OXACILLIN] | – | > 64 | MIC (Enterococcus faecalis): 16 µg/mL (≈ 39.9 µM); MIC (Staphylococcus aureus [1]): > 64 µg/mL; MIC (Staphylococcus aureus [3]): 0.25 µg/mL (≈ 0.623 µM) |

Further lines, with some results ahead:

| IC50 [2] [µM] | SMILES | MIC (Enterococcus faecium) [µg/mL] | also measured |
| --- | --- | --- | --- |
| > 500 | O=C(Nc1ccc(Cl)c(Cl)c1)c1cc(Cl)cc(Cl)c1 | – | – |
| > 500 | Oc1c(Cl)cc(Cl)cc1/C=C/c1ccc(Cl)c(Cl)c1 | – | – |
| 365 | O=C(Nc1ccc(Cl)c(Cl)c1)Nc1cc(Cl)cc(Cl)c1O | – | – |
| 4.8 | Cc1cc(NC(=O)c2cc(Cl)cc(Cl)c2O)c(Cl)cc1C(C#N)c1ccc(Cl)cc1 (stereo unspecified) | – | – |
| 385 | O=C(Nc1ccccc1)c1cc(Cl)cc(Cl)c1O | – | – |
| > 500 | Cc1cc(N(C)C(=O)c2cc(I)cc(I)c2O)c(Cl)cc1C(C#N)c1ccc(Cl)cc1 (stereo unspecified) | – | – |
| > 500 | O=C(NCc1ccc(Cl)c(Cl)c1)c1cc(Cl)cc(Cl)c1O | – | – |
| 22 | O=C(Nc1ccc(Cl)c(Cl)c1)c1cc(I)cc(I)c1O | – | – |
